Our source for the IC50 values is patent US20250145599A1, “CERTAIN CHEMICAL ENTITIES, COMPOSITIONS, AND METHODS” (Retune Pharma Inc., priority 2022, published 2025).

This assay has as its target IGF-1R (Homo sapiens, UniProt P08069). In words: IGF-1R biochemical assay (ADP-Glo). Conditions: read-out: IGF1R IC50. As to the method:
The inhibitory activity against IGF-1R was measured using ADP-Glo assay. The percent (%) inhibition at each concentration of compound is calculated based on and relative to the luminescence signal in the Max and Min control wells contained within each assay plate. The Max control wells contain enzyme and substrate as 0% inhibition, and the Min control wells only contain substrate without enzyme as 100% inhibition. The concentrations and % inhibition values for tested compounds are plotted and the concentration of compound required for 50% inhibition (IC50) is determined with a four-parameter logistic dose response equation.
Table 3 provides IC50 data of representative compounds against IGF-1R using ADP-Glo assay. The IC50 data are designated within the following ranges: A: ≤0.10 μM, B: >0.10 μM to ≤1 μM, C: >1 μM to ≤20 μM
A general note: ADP-Glo turns the ADP formed in a reaction into a luminescent signal.

pIC50: −log10 of the molar value.

Chain of IGF-1R (P08069 31-1367): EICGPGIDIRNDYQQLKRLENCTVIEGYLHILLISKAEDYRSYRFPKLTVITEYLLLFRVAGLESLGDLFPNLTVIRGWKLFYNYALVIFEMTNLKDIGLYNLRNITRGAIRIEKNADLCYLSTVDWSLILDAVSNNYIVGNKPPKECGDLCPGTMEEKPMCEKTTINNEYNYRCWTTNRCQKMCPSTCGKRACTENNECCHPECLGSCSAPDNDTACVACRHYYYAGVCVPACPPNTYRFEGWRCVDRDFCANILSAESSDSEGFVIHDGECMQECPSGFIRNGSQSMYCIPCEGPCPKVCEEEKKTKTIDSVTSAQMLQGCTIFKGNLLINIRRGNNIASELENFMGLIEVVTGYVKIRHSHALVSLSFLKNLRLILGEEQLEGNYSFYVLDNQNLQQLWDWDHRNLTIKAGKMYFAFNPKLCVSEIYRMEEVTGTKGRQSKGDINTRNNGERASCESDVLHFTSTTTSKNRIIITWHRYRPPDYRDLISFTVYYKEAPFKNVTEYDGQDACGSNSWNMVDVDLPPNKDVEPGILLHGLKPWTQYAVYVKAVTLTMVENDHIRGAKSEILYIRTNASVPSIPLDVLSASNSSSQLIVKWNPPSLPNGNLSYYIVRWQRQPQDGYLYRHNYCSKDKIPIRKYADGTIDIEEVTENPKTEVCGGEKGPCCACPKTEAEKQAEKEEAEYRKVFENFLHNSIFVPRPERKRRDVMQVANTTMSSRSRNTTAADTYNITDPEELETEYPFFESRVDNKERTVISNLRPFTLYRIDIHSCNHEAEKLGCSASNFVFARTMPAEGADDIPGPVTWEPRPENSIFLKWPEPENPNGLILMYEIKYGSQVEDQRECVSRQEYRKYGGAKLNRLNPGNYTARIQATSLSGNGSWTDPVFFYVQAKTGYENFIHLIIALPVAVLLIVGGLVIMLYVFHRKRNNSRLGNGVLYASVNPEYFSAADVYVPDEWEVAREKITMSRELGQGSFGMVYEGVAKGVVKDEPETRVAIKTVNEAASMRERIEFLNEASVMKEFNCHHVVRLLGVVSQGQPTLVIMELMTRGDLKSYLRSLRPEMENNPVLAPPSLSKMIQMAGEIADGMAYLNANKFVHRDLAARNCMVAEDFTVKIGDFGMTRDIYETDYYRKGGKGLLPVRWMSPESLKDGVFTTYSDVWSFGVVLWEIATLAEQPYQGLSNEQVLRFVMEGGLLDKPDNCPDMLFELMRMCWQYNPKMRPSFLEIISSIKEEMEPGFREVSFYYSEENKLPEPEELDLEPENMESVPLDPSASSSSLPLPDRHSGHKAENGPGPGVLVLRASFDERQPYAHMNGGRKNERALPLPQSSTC

What is called pIC50 is the IC50 on a negative log10 scale, so that one unit is a factor of ten. For `C[C@]1(O)C[C@H](n2nc(-c3ccc4ccc(-c5ccccc5)nc4c3)c(C(N)=O)c2N)C1` [Example C006, 5-amino-1-((1r,3r)-3-hydroxy-3-methylcyclobutyl)-3-(2-phenylquinolin-7-yl)-1H-pyrazole-4-carboxamide], the pIC50 was 6.00 to 7.00.

`CCOC(=O)[C@]1(C)C[C@@H](n2nc(-c3ccc4ccc(-c5ccccc5)nc4c3)c(C(N)=O)c2N)C1` [Example C020, ethyl (1r,3r)-3-(5-amino-4-carbamoyl-3-(2-phenylquinolin-7-yl)-1H-pyrazol-1-yl)-1-methylcyclobutane-1-carboxylate]: the negative logarithm of the IC50 (pIC50) is 6.00 to 7.00.

`CN1CCN(C2CC(n3nc(-c4ccc5ccc(-c6ccccc6)nc5c4)c(C(N)=O)c3N)C2)CC1` (centres unmarked) [Example C026, 5-amino-1-(3-(4-methylpiperazin-1-yl)cyclobutyl)-3-(2-phenylquinolin-7-yl)-1H-pyrazole-4-carboxamide]: the negative logarithm of the IC50 (pIC50) was not below 7.00.

For `C[C@]1(O)C[C@@H](n2nc(-c3ccc4ccc(-c5ccccc5F)nc4c3)c(C(N)=O)c2N)C1` [Example C037, 5-amino-3-(2-(2-fluorophenyl)quinolin-7-yl)-1-((1s,3s)-3-hydroxy-3-methylcyclobutyl)-1H-pyrazole-4-carboxamide], the pIC50 was not below 7.00.

In the case of `CN1CCN(C[C@H]2C[C@@H](n3nc(-c4ccc5ccc(-c6ccccc6)nc5c4)c(C(N)=O)c3N)C2)CC1` [Example C019, 5-amino-1-((1s,3s)-3-((4-methylpiperazin-1-yl)methyl)cyclobutyl)-3-(2-phenylquinolin-7-yl)-1H-pyrazole-4-carboxamide], the negative-log IC50 (pIC50) is 6.00 to 7.00.

Turning to `C[C@]1(O)C[C@@H](n2nc(-c3ccc4ccc(-c5cccc(F)c5)nc4c3)c(C(N)=O)c2N)C1` [Example C041, 5-amino-3-(2-(3-fluorophenyl)quinolin-7-yl)-1-((1s,3s)-3-hydroxy-3-methylcyclobutyl)-1H-pyrazole-4-carboxamide], the pIC50 is not below 7.00.

`C[C@]1(O)C[C@H](n2nc(-c3ccc4ccc(-c5ccccc5F)nc4c3)c(C(N)=O)c2N)C1` [Example C040, 5-amino-3-(2-(2-fluorophenyl)quinolin-7-yl)-1-((1r,3r)-3-hydroxy-3-methylcyclobutyl)-1H-pyrazole-4-carboxamide]: the pIC50 is not below 7.00.

In the case of `C[C@]1(O)C[C@@H](n2nc(-c3ccc4cc(F)c(-c5ccccc5)nc4c3F)c(C(N)=O)c2N)C1` [Example C059, 5-amino-3-(3,8-difluoro-2-phenylquinolin-7-yl)-1-((1s,3s)-3-hydroxy-3-methylcyclobutyl)-1H-pyrazole-4-carboxamide], the pIC50 is 6.00 to 7.00.

For the compound `NC(=O)c1c(-c2ccc3ccc(-c4ccccc4)nc3c2)nn(C2CC(N3CCOCC3)C2)c1N` (centres unmarked) [Example C023, 5-amino-1-(3-morpholinocyclobutyl)-3-(2-phenylquinolin-7-yl)-1H-pyrazole-4-carboxamide], the negative-log IC50 (pIC50) is not below 7.00.

For `C[C@]1(O)C[C@@H](n2nc(-c3ccc4c(OC(F)F)cc(-c5ccccc5)nc4c3)c(C(N)=O)c2N)C1` [Example C053, 5-amino-3-(4-(difluoromethoxy)-2-phenylquinolin-7-yl)-1-((1s,3s)-3-hydroxy-3-methylcyclobutyl)-1H-pyrazole-4-carboxamide], the negative logarithm of the IC50 (pIC50) was not below 7.00.

As to `COc1cc(-c2ccccc2)nc2cc(-c3nn([C@H]4C[C@](C)(O)C4)c(N)c3C(N)=O)c(F)cc12` [Example C052, 5-amino-3-(6-fluoro-4-methoxy-2-phenylquinolin-7-yl)-1-((lr,3r)-3-hydroxy-3-methylcyclobutyl)-1H-pyrazole-4-carboxamide], the pIC50 was not below 7.00.

Turning to `NC(=O)c1c(-c2ccc3ccc(-c4ccccc4)nc3c2)nn(C2CC(=O)C2)c1N` [Example C001, 5-amino-1-(3-oxocyclobutyl)-3-(2-phenylquinolin-7-yl)-1H-pyrazole-4-carboxamide], the pIC50 was 4.70 to 6.00.

Take `CN1CCC(n2nc(-c3ccc4ccc(-c5ccccc5)nc4c3)c(C(N)=O)c2N)CC1` [Example C007, 5-amino-1-(1-methylpiperidin-4-yl)-3-(2-phenylquinolin-7-yl)-1H-pyrazole-4-carboxamide]: the pIC50 is 4.70 to 6.00.

For `NC(=O)c1c(-c2ccc3ccc(-c4ccccc4)nc3c2)nn(C2CCN(C(N)=O)CC2)c1N` [Example C003, 4-(5-amino-4-carbamoyl-3-(2-phenylquinolin-7-yl)-1H-pyrazol-1-yl)piperidine-1-carboxamide], the pIC50 was 4.70 to 6.00.

For `NC(=O)c1c(-c2ccc3ccc(-c4ccccc4)nc3c2)nn([C@H]2C[C@@H](CN3CCNCC3)C2)c1N` [Example C015, 5-amino-3-(2-phenylquinolin-7-yl)-1-((1s,3s)-3-(piperazin-1-ylmethyl)cyclobutyl)-1H-pyrazole-4-carboxamide], the negative logarithm of the IC50 (pIC50) is not below 7.00.

In the case of `C[C@]1(O)C[C@@H](n2nc(-c3ccc4ccc(-c5ccc(F)cc5)nc4c3)c(C(N)=O)c2N)C1` [Example C039, 5-amino-3-(2-(4-fluorophenyl)quinolin-7-yl)-1-((1s,3s)-3-hydroxy-3-methylcyclobutyl)-1H-pyrazole-4-carboxamide], the pIC50 is 6.00 to 7.00.

In the case of `CCOC(=O)[C@H]1C[C@@H](n2nc(-c3ccc4ccc(-c5ccccc5)nc4c3)c(C(N)=O)c2N)C1` [Example C011, ethyl (1s,3s)-3-(5-amino-4-carbamoyl-3-(2-phenylquinolin-7-yl)-1H-pyrazol-1-yl)cyclobutane-1-carboxylate], the pIC50 is 6.00 to 7.00.

Consider `CCOc1cc(-c2ccccc2)nc2cc(-c3nn(C4CC(=O)C4)c(N)c3C(N)=O)ccc12` [Example C043, 5-amino-3-(4-ethoxy-2-phenylquinolin-7-yl)-1-(3-oxocyclobutyl)-1H-pyrazole-4-carboxamide], for which the pIC50 was not below 7.00.

On to `C[C@]1(O)C[C@@H](n2nc(-c3ccc4c(OC(F)F)cc(-c5ccccc5)nc4c3F)c(C(N)=O)c2N)C1` [Example C044, 5-amino-3-(4-(difluoromethoxy)-8-fluoro-2-phenylquinolin-7-yl)-1-((1s,3s)-3-hydroxy-3-methylcyclobutyl)-1H-pyrazole-4-carboxamide], for which the negative logarithm of the IC50 (pIC50) is not below 7.00.

Take `C[C@]1(O)C[C@@H](n2nc(-c3ccc4c(O)cc(-c5ccccc5)nc4c3F)c(C(N)=O)c2N)C1` [Example C042, 5-amino-3-(8-fluoro-4-hydroxy-2-phenylquinolin-7-yl)-1-((1s,3s)-3-hydroxy-3-methylcyclobutyl)-1H-pyrazole-4-carboxamide]: the pIC50 is 4.70 to 6.00.

For `NC(=O)c1c(-c2ccc3ccc(-c4ccccc4)nc3c2)nn(C2CCNCC2)c1N` [Example C002, 5-amino-3-(2-phenylquinolin-7-yl)-1-(piperidin-4-yl)-1H-pyrazole-4-carboxamide], the pIC50 was 6.00 to 7.00.

As for `COc1cc(-c2ccccc2)nc2cc(-c3nn([C@H]4C[C@@](C)(O)C4)c(N)c3C(N)=O)cc(F)c12` [Example C055, 5-amino-3-(5-fluoro-4-methoxy-2-phenylquinolin-7-yl)-1-((1s,3s)-3-hydroxy-3-methylcyclobutyl)-1H-pyrazole-4-carboxamide], the pIC50 was 6.00 to 7.00.

In the case of `NC(=O)c1c(-c2ccc3ccc(-c4ccccc4)nc3c2)nn([C@H]2C[C@@H](C(=O)O)C2)c1N` [Example C017, (1s,3s)-3-(5-amino-4-carbamoyl-3-(2-phenylquinolin-7-yl)-1H-pyrazol-1-yl)cyclobutane-1-carboxylic acid], the negative logarithm of the IC50 (pIC50) was 4.70 to 6.00.
